10 molecules from ChEMBL document CHEMBL1201862, “PubChem BioAssay data set” (2004) can be followed below.

Some test systems named below: SW-620; CCRF-CEM; RPMI-8226; DU-145; BT-549; Malme-3M; NCI-H522; NCI-H226; SK-MEL-28; 786-0; HCT-116; OVCAR-5; M14; OVCAR-8; A549; SF-539; MOLT-4; OVCAR-3; T47D; HT-29.
What all share (assay): inhibition of tumour cell growth, NCI panel, 48 h

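Cultured in 96-well plates, cells were exposed to test compound for 48 hours across five concentrations. At the GI50, growth is halved.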 Calls of active or inactive are those of the source. Cut-off read from the data, not from the text of the source: active = GI50 up to about 1.1 µM and inactive = higher. Some results are limits rather than exact numbers.

Turning to `Cc1cccc2c1[C@]13OC(C)[C@]4(C)CC5OC(=O)[C@@]1(C)[C@@H]5[C@]34C(=O)O2` (stereo not given in full), the GI50 with SW-620, in the experiment on CCRF-CEM, in the experiment with RPMI-8226, with DU-145, in the experiment on BT-549 and in the experiment with Malme-3M was > 100 µM (inactive) throughout. In addition, the GI50 with NCI-H522, in the experiment on NCI-H226, in the experiment with SK-MEL-28, in the experiment with 786-0, in the experiment with HCT-116 and in the experiment on OVCAR-5 was > 100 µM (inactive) throughout. In addition, the GI50 in the experiment with M14, in the experiment on OVCAR-8, in the experiment with A549, in the experiment on SF-539, in the experiment with MOLT-4 and with OVCAR-3 was > 100 µM (inactive) each time. Moreover, the GI50 with T47D and in the experiment on HT-29 was > 100 µM (inactive) in each case.
With `CC(=O)C1=C(c2ccccc2)N(C2OC(CO)C(O)C(O)C2O)C(S)=C(C#N)C1c1ccc(Cl)cc1` (stereo not given), the GI50 was 8.53 µM (inactive) in the experiment with SW-620; 34.8 µM (inactive) in the experiment with CCRF-CEM; 29.9 µM (inactive) in the experiment on RPMI-8226; 44.8 µM (inactive) with DU-145; 15.9 µM (inactive) in the experiment on BT-549; 24.8 µM (inactive) in the experiment with Malme-3M. For the same molecule, the GI50 was 23.7 µM (inactive) with NCI-H522; 20.7 µM (inactive) in the experiment with NCI-H226; 20.7 µM (inactive) with SK-MEL-28; 27 µM (inactive) in the experiment with 786-0; 16 µM (inactive) in the experiment with HCT-116; 62.2 µM (inactive) in the experiment with OVCAR-5. Besides, the GI50 in the experiment with M14 was 21 µM (inactive); with OVCAR-8, 33.5 µM (inactive); in the experiment with A549 it was 39.4 µM (inactive); with SF-539 it was 18.2 µM (inactive); in the experiment on MOLT-4, 15.8 µM (inactive); with OVCAR-3, 21.6 µM (inactive). Besides, the GI50 was 10.3 µM (inactive) with T47D and 31 µM (inactive) with HT-29.
As for `Cc1c2c(OCCCCN3CCN(c4ncccn4)CC3)nn(C)c(=O)c2c(C)n1-c1ccccc1`, the GI50 with SW-620 was 25.6 µM (inactive); in the experiment on CCRF-CEM it was 31.1 µM (inactive); in the experiment with RPMI-8226, 20.2 µM (inactive); with DU-145 it was 17.1 µM (inactive); with BT-549, 19.3 µM (inactive); with Malme-3M, 20.2 µM (inactive). The GI50 was 18.4 µM (inactive) with NCI-H522; 20.7 µM (inactive) with NCI-H226; 18.4 µM (inactive) in the experiment with SK-MEL-28; 18.1 µM (inactive) with 786-0; 16.9 µM (inactive) in the experiment with HCT-116; 20.5 µM (inactive) in the experiment on OVCAR-5. Besides, the GI50 with M14 was 20.7 µM (inactive); in the experiment on OVCAR-8, 24.7 µM (inactive); in the experiment on A549 it was 20.7 µM (inactive); with SF-539, 17.6 µM (inactive); with MOLT-4 it was 26.8 µM (inactive); in the experiment on OVCAR-3, 19.5 µM (inactive). The GI50 in the experiment on T47D was 17.9 µM (inactive); in the experiment on HT-29, 24.8 µM (inactive).
Take `CCOC(=O)Cc1ccc(Nc2nc3cc(F)c(F)cc3nc2C(=O)OCC)cc1`: the GI50 in the experiment on SW-620 was 43.7 µM (inactive); in the experiment with CCRF-CEM, 42.8 µM (inactive); in the experiment with RPMI-8226, 39.1 µM (inactive); in the experiment on DU-145 it was 25.9 µM (inactive); with BT-549, 55.6 µM (inactive); in the experiment with Malme-3M it was > 100 µM (inactive). For the same molecule, the GI50 in the experiment on NCI-H522 is 9.18 µM (inactive); with NCI-H226, 69.3 µM (inactive); with SK-MEL-28 it was 64 µM (inactive); in the experiment with 786-0, > 100 µM (inactive); with HCT-116, 71.9 µM (inactive); in the experiment on OVCAR-5, > 100 µM (inactive). The GI50 with M14 is 35.1 µM (inactive); with OVCAR-8, 29.2 µM (inactive); with A549, 74 µM (inactive); in the experiment with SF-539 it was > 100 µM (inactive); with MOLT-4 it was 44 µM (inactive); with OVCAR-3, 47.2 µM (inactive). Besides, the GI50 with T47D is 35.1 µM (inactive); with HT-29 it was 53.7 µM (inactive).
Turning to `COC(=O)C1CCC(=O)N1C(c1ccccc1)c1ccc(OC)c(OC)c1` (stereo not given), the GI50 is > 100 µM (inactive) in the experiment with SW-620; > 10 µM (inactive) with CCRF-CEM; > 100 µM (inactive) in the experiment on RPMI-8226; > 100 µM (inactive) with DU-145; > 100 µM (inactive) in the experiment with BT-549; > 100 µM (inactive) in the experiment on Malme-3M. Further, the GI50 with NCI-H522, with NCI-H226, with SK-MEL-28, in the experiment with 786-0, with HCT-116 and in the experiment on OVCAR-5 was > 100 µM (inactive) in each case. Moreover, the GI50 was > 100 µM (inactive) in the experiment with M14; > 100 µM (inactive) with OVCAR-8; > 100 µM (inactive) with A549; > 100 µM (inactive) with SF-539; > 10 µM (inactive) in the experiment on MOLT-4; > 100 µM (inactive) in the experiment with OVCAR-3. Moreover, the GI50 in the experiment on T47D and in the experiment with HT-29 was > 100 µM (inactive) throughout.
Consider `Cn1c(=O)c2c([nH]/c(=N/N=C/c3ccccc3C(=O)O)n2C)n(C)c1=O`, for which the GI50 in the experiment on SW-620, with CCRF-CEM, in the experiment on RPMI-8226, in the experiment with DU-145, in the experiment with BT-549 and in the experiment on Malme-3M was > 100 µM (inactive) each time. Further, the GI50 in the experiment with NCI-H522, in the experiment on NCI-H226, in the experiment with SK-MEL-28, in the experiment with 786-0, in the experiment on HCT-116 and in the experiment on OVCAR-5 was > 100 µM (inactive) in each case. In addition, the GI50 with M14, with OVCAR-8, in the experiment on A549, in the experiment on SF-539, in the experiment with MOLT-4 and in the experiment on OVCAR-3 was > 100 µM (inactive) throughout. Further, the GI50 in the experiment with T47D and in the experiment on HT-29 was > 100 µM (inactive) throughout.
As to `O=C1NC(Nc2ccccc2)=N/C1=C\c1c(Cl)cccc1Cl`, the GI50 in the experiment on SW-620 was 36.1 µM (inactive); with CCRF-CEM, 14.3 µM (inactive); with RPMI-8226, 33.5 µM (inactive); in the experiment on DU-145, 24.7 µM (inactive); in the experiment on BT-549, > 100 µM (inactive); with Malme-3M, 22.7 µM (inactive). In addition, the GI50 in the experiment with NCI-H522 is 53.3 µM (inactive); in the experiment with NCI-H226 it was 16.7 µM (inactive); in the experiment on SK-MEL-28 it was 30.5 µM (inactive); in the experiment on 786-0, 15.1 µM (inactive); in the experiment on HCT-116 it was 27.4 µM (inactive); in the experiment on OVCAR-5 it was 29 µM (inactive). Further, the GI50 was 22.8 µM (inactive) with M14; 19.1 µM (inactive) in the experiment with OVCAR-8; 18.2 µM (inactive) in the experiment with A549; 22.1 µM (inactive) in the experiment on SF-539; 20.7 µM (inactive) in the experiment on MOLT-4; 63.4 µM (inactive) in the experiment with OVCAR-3. For the same molecule, the values for the GI50 in the experiment on T47D and in the experiment with HT-29 were 30.8 µM (inactive) and 30.6 µM (inactive), respectively.
As for `Cc1csc(-n2nc(C)cc2C)n1`, the GI50 with SW-620, in the experiment with CCRF-CEM, with RPMI-8226, in the experiment on DU-145, with BT-549 and in the experiment with Malme-3M was > 100 µM (inactive) in each case. Moreover, the GI50 in the experiment with NCI-H522, in the experiment with NCI-H226, in the experiment on SK-MEL-28, in the experiment with 786-0, in the experiment with HCT-116 and with OVCAR-5 was > 100 µM (inactive) each time. In addition, the GI50 was > 100 µM (inactive) in the experiment on M14; > 100 µM (inactive) in the experiment on OVCAR-8; > 100 µM (inactive) in the experiment on A549; > 100 µM (inactive) in the experiment with SF-539; 2.38 µM (inactive) in the experiment with MOLT-4; > 100 µM (inactive) in the experiment on OVCAR-3. The GI50 with T47D and in the experiment with HT-29 was > 100 µM (inactive) each time.
As to `CCOC(=O)C(NC(=O)c1ccccc1)(N1CCN(c2cc3c(cc2F)c(=O)c(C(=O)O)cn3CC)CC1)C(F)(F)F` (stereo not given), the GI50 with SW-620 is 47.6 µM (inactive); in the experiment on CCRF-CEM, 21.8 µM (inactive); with RPMI-8226 it was 25.2 µM (inactive); in the experiment with DU-145, 59.3 µM (inactive); in the experiment with BT-549, 35.9 µM (inactive); with Malme-3M, 22 µM (inactive). For the same molecule, the GI50 is 16.7 µM (inactive) with NCI-H522; 29.2 µM (inactive) in the experiment on NCI-H226; < 0.01 µM (active) in the experiment on SK-MEL-28; 39.7 µM (inactive) in the experiment on 786-0; 33.9 µM (inactive) in the experiment with HCT-116; 21.1 µM (inactive) in the experiment on OVCAR-5. Moreover, the GI50 is 51.1 µM (inactive) in the experiment with M14; 19.2 µM (inactive) with OVCAR-8; 39.9 µM (inactive) in the experiment on A549; 26.5 µM (inactive) in the experiment with SF-539; 21.5 µM (inactive) in the experiment on MOLT-4; 31.3 µM (inactive) with OVCAR-3. Further, the GI50 in the experiment on T47D is 23.9 µM (inactive); in the experiment with HT-29, 29 µM (inactive).
With `Cc1nc2sc3ccccc3n2c(=O)c1/N=N/c1ccc(Cl)cc1`, the GI50 in the experiment with SW-620, with CCRF-CEM, in the experiment on RPMI-8226, in the experiment on DU-145, with BT-549 and with Malme-3M was > 100 µM (inactive) in each case. Further, the GI50 in the experiment on NCI-H522, in the experiment with NCI-H226, in the experiment with SK-MEL-28, in the experiment on 786-0, in the experiment with HCT-116 and in the experiment with OVCAR-5 was > 100 µM (inactive) each time. Also, the GI50 in the experiment on M14, with OVCAR-8, in the experiment on A549, with SF-539, with MOLT-4 and in the experiment on OVCAR-3 was > 100 µM (inactive) each time. In addition, the GI50 in the experiment on T47D and with HT-29 was > 100 µM (inactive) each time.
